Values after ≈ are worked out from the molar mass of the structure shown.
Key:
[1] = system: RPMI8226 (multiple myeloma); experiment: Multiple myeloma cell growth inhibition, MTT, 72 h (Example 6); type: cell-based, human; conditions: Homo sapiens, RPMI-8226; 72 h, MTT, RPMI8226
In short: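 Viability was read by MTT after 72 h of compound exposure at 37 °C, 5% CO2. Each well held 6000 RPMI8226 cells in 1640 medium containing 10% fetal bovine serum, with derivatives added at various concentrations.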

[2] = Experiment 8-1: body weight of nude mice, preliminary toxicity; type: in vivo, BALB/c nude mice
Procedure: (§1) BS-TE-403 and BS-TE-333 (the present invention), and tetrandrine TTD from Jiangxi Jinfurong Pharmaceutical Co., Ltd. All compounds are administered at the dosage of 50 mg/kg weight each time.
(§2) The experiments are divided into 4 groups: negative control group (solvent group), positive control group (lead compound TTD group), BS-TE-403 group and BS-TE-333 group.
(§3) The administrations are successive for 10 days.

[3] = system: MG63 (osteosarcoma); experiment: Solid tumor cell growth inhibition, MTT, 72 h (Example 7); type: cell-based, human; conditions: Homo sapiens; 72 h, MTT, MG-63
In short: (§4)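 Viability (%) relative to compound-free controls (100%) comes from MTT measurement following 72 h drug exposure at 37 °C, 5% CO2. Seeding density: 4000 cells/well, 24 h before dosing.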

[4] = system: PC-3 (prostate cancer); experiment: as above; type: cell-based, human; conditions: Homo sapiens; 72 h, MTT, PC-3
In short: as §4

[5] = system: CaES-17 (esophageal cancer cell); experiment: as above; type: cell-based, human; conditions: Homo sapiens, CaEs17; 72 h, MTT, CAES-17
In short: as §4

[6] = system: Hep-2 (laryngeal carcinoma); experiment: as above; type: cell-based, human; conditions: Homo sapiens; 72 h, MTT, Hep 2
In short: as §4

[7] = system: PANC-1 (pancreatic cancer); experiment: as above; type: cell-based, human; conditions: Homo sapiens; 72 h, MTT, PANC-1
In short: as §4

[8] = system: human non-small cell lung cancer cell line A549 transplanted tumor; experiment: Experiment 8-1: transplanted tumor of human lung cancer in nude mice; type: in vivo, BALB/c nude mice
Procedure: (§5) Cell lines: human non-small cell lung cancer cell line A549, from China Center for Type Culture Collection (CCTCC);
as §1
Under sterile conditions, the above tumor cells in the logarithmic growth phase are collected and injected by subcutaneous injection in an amount of 5×10^6/0.2 ml/nude mice (cell viability>95%) into the right subaxillary of the nude mice, thus establishing a transplated tumor model of human non-small cell lung cancer in nude mice.
as §2, §3

[9] = system: Jurkat (acute lymphoblastic leukemia, ALL); experiment: Leukemia cell growth inhibition, MTT, 72 h (Example 5); type: cell-based, human; conditions: Homo sapiens, Jurkat; 72 h, MTT
In short: (§6)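 RPMI 1640 + 10% FBS, 6000 cells/well; tetrandrine derivatives at various concentrations; 37° C, 5% CO2, 72 h; viability by MTT.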

[10] = system: K562/adr (drug-resistant, chronic myeloid leukemia, CML); experiment: as above; type: cell-based, human; conditions: Homo sapiens, K562/Adr; 72 h, MTT
In short: as §6

[11] = system: H9 (acute lymphoblastic leukemia, ALL); experiment: as above; type: cell-based, human; conditions: Homo sapiens; 72 h, MTT
In short: as §6

[12] = system: NB4 (acute promyelocytic leukemia, AML); experiment: as above; type: cell-based, human; conditions: Homo sapiens; 72 h, MTT
In short: as §6

[13] = system: Kasumi-1 (acute myeloid leukemia M2 type, AML-M2); experiment: as above; type: cell-based, human; conditions: Homo sapiens, Kasumi 1
In short: as §6

[14] = system: MGC 803 (human gastric cancer cell); experiment: Solid tumor cell growth inhibition, MTT, 72 h (Example 7); type: cell-based; conditions: Homo sapiens
In short: as §4

[15] = system: SK-OV-3 (ovarian cancer cell); experiment: as above; type: cell-based; conditions: Homo sapiens
In short: as §4

[16] = system: Huh7 (human liver cancer cell); experiment: as above; type: cell-based; conditions: Homo sapiens; 72 h, MTT, Huh-7
In short: as §4

[17] = system: RKO (human colon adenocarcinoma cell); experiment: as above; type: cell-based; conditions: Homo sapiens; 72 h, MTT, RKO
In short: as §4

[18] = system: Hela (human cervical cancer cell); experiment: as above; type: cell-based; conditions: Homo sapiens; 72 h, MTT, Hela
In short: as §4

[19] = system: CNE (nasopharyngeal carcinoma cell); experiment: as above; type: cell-based; conditions: Homo sapiens
In short: as §4

[20] = system: Becap37 (human breast cancer cell); experiment: as above; type: cell-based; conditions: Homo sapiens; 72 h, MTT, Becap-37
In short: as §4

[21] = system: U87 MG (malignant glioma cell); experiment: as above; type: cell-based; conditions: Homo sapiens, U-87 MG
In short: as §4

[22] = system: A549 (human lung cancer); experiment: as above; type: cell-based; conditions: Homo sapiens; 72 h, MTT, A549
In short: as §4

[23] = system: human non-small cell lung cancer cell line A549 transplanted tumor; experiment: Experiment 8-2: transplanted tumor of human lung cancer in nude mice; type: in vivo, BALB/c nude mice; conditions: 50 mg/kg intragastric, 3 times a day, 10 days, Day 29, M±SD
Excerpt: as §5, §3

[24] = Experiment 8-2: body weight of nude mice, preliminary toxicity; conditions: M±SD
Procedure: Animal: BALB/c nude mice, 8 weeks, female, purchased from Shanghai Laboratory Animal Center of Chinese Academy of Sciences, China.
The mice are administered from the third day after the inoculation. Each mouse is intragastrically administered in 0.4 ml each time and 3 times a day, at 8:00, 14:00 and 20:00, with 6-hour intervals. The administrations are successive for 10 days. The day before administration is deemed as Day 0 and the body weight and tumor size are determined every 5 days to produce a dynamic plot on body weight and tumor growth. On Day 29, the mice are dissected and the tumors are taken out and weighted. The tumor inhibition rate (%) is calculated after the effect of the medicament based on the tumor inhibition rate of the control group being zero.
The values determined are presented as mean±standard error (M±SD).

COc1ccc2cc1Oc1ccc(cc1)C[C@H]1c3cc(c(OC)cc3CCN1C)Oc1c(OC)c(OC)c(CN3CCN(C(C)C)CC3)c3c1[C@H](C2)N(C)CC3 [BS-TE-333]
IC50 [1]: 0.06 µg/mL (≈ 0.0786 µM) | IC90 [1]: 2.34 µg/mL (≈ 3.07 µM) | toxic or side effect under such a dosage ([2]; 50 mg/kg): has caused some toxic and side effect | weight loss as compared with the weight in the control group (FIG. 1) ([2]; 50 mg/kg): relatively obvious | Weight (g) Final ([2]; 50 mg/kg intragastric, 3 times a day, 10 days, final body weight, M±SD): 16.95 ± 2.30 g | Weight (g) Initial ([2]; nude mice body weight before administration, M±SD): 21.3 ± 0.24 g | IC50 [3]: 0.7 µg/mL (≈ 0.917 µM) | IC90 [3]: 1.3 µg/mL (≈ 1.7 µM) | IC50 [4]: 1.85 µg/mL (≈ 2.42 µM) | IC90 [4]: 2.9 µg/mL (≈ 3.8 µM) | IC50 [5]: 2.35 µg/mL (≈ 3.08 µM) | IC90 [5]: 17.1 µg/mL (≈ 22.4 µM) | IC50 [6]: 1.72 µg/mL (≈ 2.25 µM) | IC90 [6]: 9.69 µg/mL (≈ 12.7 µM) | IC50 [7]: 1.69 µg/mL (≈ 2.21 µM) | IC90 [7]: 9.93 µg/mL (≈ 13 µM) | effect on transplanted tumor of human lung cancer in nude mice (FIG. 2) ([8]; 50 mg/kg): exhibit inhibiting effects | Mass of tumor ([8]; 50 mg/kg intragastric, 3 times a day, 10 days, Day 27, M±SD): 639.25 ± 285.20 mg | Tumor Inhibition rate (%) ([8]; 50 mg/kg intragastric, 3 times a day, 10 days, Day 27, control = zero): 31.15% | IC50 [9]: 0.81 µg/mL (≈ 1.06 µM) | IC90 [9]: 4.18 µg/mL (≈ 5.48 µM) | IC50 [10]: 0.43 µg/mL (≈ 0.564 µM) | IC90 [10]: 1.91 µg/mL (≈ 2.5 µM) | IC50 [11]: 1.14 µg/mL (≈ 1.49 µM) | IC90 [11]: 1.84 µg/mL (≈ 2.41 µM) | IC50 [12]: 0.48 µg/mL (≈ 0.629 µM) | IC90 [12]: 1 µg/mL (≈ 1.31 µM) | IC50 [13]: 0.77 µg/mL (≈ 1.01 µM) | IC90 [13]: 3.29 µg/mL (≈ 4.31 µM) | IC50 [14]: 0.84 µg/mL (≈ 1.1 µM) | IC90 [14]: 5.3 µg/mL (≈ 6.95 µM) | IC50 [15]: 3.04 µg/mL (≈ 3.98 µM) | IC90 [15]: > 16 µg/mL | IC50 [16]: 1.64 µg/mL (≈ 2.15 µM) | IC90 [16]: 2.45 µg/mL (≈ 3.21 µM) | IC50 [17]: 0.54 µg/mL (≈ 0.708 µM) | IC90 [17]: 1.74 µg/mL (≈ 2.28 µM) | IC50 [18]: 1.69 µg/mL (≈ 2.21 µM) | IC90 [18]: 5 µg/mL (≈ 6.55 µM) | IC50 [19]: 2.6 µg/mL (≈ 3.41 µM) | IC90 [19]: 5.6 µg/mL (≈ 7.34 µM) | IC50 [20]: 1 µg/mL (≈ 1.31 µM) | IC90 [20]: 4.5 µg/mL (≈ 5.9 µM) | IC50 [21]: 0.5 µg/mL (≈ 0.655 µM) | IC90 [21]: 1.51 µg/mL (≈ 1.98 µM) | IC50 [22]: 1.5 µg/mL (≈ 1.97 µM) | IC90 [22]: 11 µg/mL (≈ 14.4 µM)

COc1cc2ncnc(Nc3ccc(F)c(Cl)c3)c2cc1OCCCN1CCOCC1 [Jef, gefitinib, reference compound]
Mass of tumor [23]: 883 ± 273.32 mg | Weight (g) Final ([24]; 50 mg/kg intragastric, 3 times a day, 10 days, final body weight): 21.8 ± 0.99 g | Weight (g) Initial ([24]; nude mice body weight before administration): 22.1 ± 0.17 g
